Reference: ChEMBL document CHEMBL4627328, “Synthesis and in vitro evaluation of antimycobacterial and cytotoxic activity of new α,β-unsaturated amide, oxazoline and oxazole derivatives from l-serine” (Bioorg Med Chem Lett, 2020)
In brackets after ≈: the same amount, converted by molar mass.

Experiments:
[1] = test system: Mycobacterium tuberculosis; assay: Antimycobacterial activity against Mycobacterium tuberculosis H37Rv ATCC 27294 incubated for 5 days by alamar blue based colorimetric assay; type: functional; settings: H37Rv ATCC 27294, 120 h
[2] = Cytotoxicity against monkey Vero cells assessed as cell viability at 50 ug/ml by WST-1 assay relative to control; type: cell-based; settings: chlorocebus sabaeus, read-out: Activity
[3] = Cytotoxicity against monkey Vero cells assessed as cell viability at 100 ug/ml by WST-1 assay relative to control; type: cell-based; settings: chlorocebus sabaeus, read-out: Activity

## C[C@H]1COc2c(N3CCN(C)CC3)c(F)cc3c(=O)c(C(=O)O)cn1c23 [LEVOFLOXACIN]
[1]
  MIC: 0.54 µM (≈ 0.195 µg/mL)

## COC(=O)c1coc(/C=C/c2ccc(OC)cc2)n1
[1]
  MIC: 24.1 µM (≈ 6.25 µg/mL)
[2]
  viability at 50 ug/ml: 99.6%
[3]
  viability at 100 ug/ml: 96.8%

## COC(=O)[C@@H]1COC(/C=C/c2ccc(OC)cc2)=N1
[1]
  MIC: 23.9 µM (≈ 6.24 µg/mL)
[2]
  viability at 50 ug/ml: 94.8%
[3]
  viability at 100 ug/ml: 20.9%

## CC[C@@H](CO)NCCN[C@@H](CC)CO [ETHAMBUTOL]
[1]
  MIC: 15.2 µM (≈ 3.11 µg/mL)

## COC(=O)c1coc(/C=C/c2ccc(F)cc2)n1
[1]
  MIC: 12.6 µM (≈ 3.12 µg/mL)
[2]
  viability at 50 ug/ml: 102%
[3]
  viability at 100 ug/ml: 99%

## COC(=O)[C@@H]1COC(/C=C/c2ccc(C)cc2)=N1
[1]
  MIC: 25.4 µM (≈ 6.23 µg/mL)
[2]
  viability at 50 ug/ml: 85.1%
[3]
  viability at 100 ug/ml: 17%

## O=C(/C=C/c1ccccc1)O/C(=N/C1CCCCC1)NC1CCCCC1
[1]
  MIC: > 282 µM
[2]
  viability at 50 ug/ml: 83.9%
[3]
  viability at 100 ug/ml: 83.8%

## COC(=O)c1coc(/C=C/c2ccc(C)cc2)n1
[1]
  MIC: 3.21 µM (≈ 0.781 µg/mL)
[2]
  viability at 50 ug/ml: 102%
[3]
  viability at 100 ug/ml: 100%

## COC(=O)[C@@H]1COC(/C=C/c2ccc(F)cc2)=N1
[1]
  MIC: 50.1 µM (≈ 12.5 µg/mL)
[2]
  viability at 50 ug/ml: 91.6%
[3]
  viability at 100 ug/ml: 18.6%

## COC(=O)[C@H](CO)NC(=O)/C=C/c1ccc(F)cc1
[1]
  MIC: > 374 µM

## COC(=O)[C@H](COC(=O)/C=C/c1ccc(F)cc1)NC(=O)/C=C/c1ccc(F)cc1
[1]
  MIC: 120 µM (≈ 50 µg/mL)
[2]
  viability at 50 ug/ml: 21.1%
[3]
  viability at 100 ug/ml: 8.65%

## COC(=O)[C@H](CO)NC(=O)/C=C/c1ccc(C)cc1
[1]
  MIC: > 380 µM
[2]
  viability at 50 ug/ml: 100%
[3]
  viability at 100 ug/ml: 101%

## COC(=O)[C@H](CO)NC(=O)/C=C/c1ccc(OC)cc1
[1]
  MIC: > 358 µM
[2]
  viability at 50 ug/ml: 100%
[3]
  viability at 100 ug/ml: 103%

## COC(=O)[C@H](COC(=O)/C=C/c1ccccc1)NC(=O)/C=C/c1ccccc1
[1]
  MIC: > 264 µM
[2]
  viability at 50 ug/ml: 16.8%
[3]
  viability at 100 ug/ml: 10.7%

## COC(=O)[C@H](CO)NC(=O)/C=C/c1ccccc1
[1]
  MIC: > 401 µM
[2]
  viability at 50 ug/ml: 97.1%
[3]
  viability at 100 ug/ml: 99.4%

## COC(=O)[C@H](COC(=O)/C=C/c1ccc(OC)cc1)NC(=O)/C=C/c1ccc(OC)cc1
[1]
  MIC: 114 µM (≈ 50 µg/mL)
[2]
  viability at 50 ug/ml: 39.1%
[3]
  viability at 100 ug/ml: 11.4%

## CO[C@H]1/C=C/O[C@@]2(C)Oc3c(C)c(O)c4c(O)c(c(/C=N/N5CCN(C)CC5)c(O)c4c3C2=O)NC(=O)/C(C)=C\C=C\[C@H](C)[C@H](O)[C@@H](C)[C@@H](O)[C@@H](C)[C@H](OC(C)=O)[C@@H]1C [RIFAMPIN]
[1]
  MIC: 0.06 µM (≈ 0.0494 µg/mL)

## COC(=O)[C@H](COC(=O)/C=C/c1ccc(C)cc1)NC(=O)/C=C/c1ccc(C)cc1
[1]
  MIC: 123 µM (≈ 50 µg/mL)
[2]
  viability at 50 ug/ml: 28.8%
[3]
  viability at 100 ug/ml: 18.7%

## O=C(/C=C/c1ccc(F)cc1)O/C(=N/C1CCCCC1)NC1CCCCC1
[1]
  MIC: > 268 µM
[2]
  viability at 50 ug/ml: 82.5%
[3]
  viability at 100 ug/ml: 85.5%

## COC(=O)[C@@H]1COC(/C=C/c2ccccc2)=N1
[1]
  MIC: 54.1 µM (≈ 12.5 µg/mL)
[2]
  viability at 50 ug/ml: 68.6%
[3]
  viability at 100 ug/ml: 12.4%

## COC(=O)c1coc(/C=C/c2ccccc2)n1
[1]
  MIC: 54.5 µM (≈ 12.5 µg/mL)
[2]
  viability at 50 ug/ml: 99.6%
[3]
  viability at 100 ug/ml: 102%

## Cc1ccc(/C=C/C(=O)O/C(=N/C2CCCCC2)NC2CCCCC2)cc1
[1]
  MIC: > 271 µM
[2]
  viability at 50 ug/ml: 79.3%
[3]
  viability at 100 ug/ml: 95.5%
